Test results published in patent US11020367B2, “Method for preparing medicine with dicaffeoylquinic acid for treating gout” (Huazhong Agricultural University, priority 2019, dated 2021).
Marks after values point to notes of the source that are not given here.

How the values were obtained:
THP-1 cells = assay: IL-1β secretion in THP-1 cells stimulated by lipopolysaccharide and sodium urate (gout inflammation model, ELISA); assay type: cell-based; conditions: 100 μmol/L compound pre-incubated 12 h, then lipopolysaccharide 1 μg/mL 2 h and sodium urate 200 μg/mL 4 h; PMA-differentiated THP-1; model group 8747.09 ± 975.97, control group 214.83 ± 11.92
Method: THP-1 suspension cells were inoculated into a 24-well plate. When the density reached 80%, a phorbol ester (PMA) solution with a final concentration of 100 ng/mL was added. After 12 hours of PMA treatment, THP-1 cells differentiated into adherent macrophages. Culture medium was aspirated before washing the cells with PBS, completely replacing the culture medium to culture for 12 h before carrying out a dosing treatment. One hundred μmol/L of the above identified monomer compounds were pre-incubated for 12 h, then lipopolysaccharide with a final concentration of 1 μg/mL was added and acted for 2 h, and finally a sodium urate solution with a final concentration of 200 μg/mL was added and acted for 4 h. […] The model group was pre-incubated without drugs, and cells were stimulated with lipopolysaccharide and sodium urate. Finally, the cell supernatant was collected, centrifuged, and IL-1β content in the supernatant was measured by using an ELISA kit.

XOD (xanthine oxidase) = XOD (xanthine oxidase) (Homo sapiens, UniProt P47989); assay: Inhibition of XOD enzyme activity (absorbance at 295 nm, xanthine substrate); assay type: biochemical; conditions: XOD 0.02 U/mL, xanthine 1 mmol/L, 37° C.; read-out: IC50 in inhibiting XOD
Method: Forty μL of xanthine solution (1 mmol/L) was added with a spray gun to measure absorbance every 20 s for 15 times.

Chain of XOD (xanthine oxidase) (P47989 whole entry, species assumed): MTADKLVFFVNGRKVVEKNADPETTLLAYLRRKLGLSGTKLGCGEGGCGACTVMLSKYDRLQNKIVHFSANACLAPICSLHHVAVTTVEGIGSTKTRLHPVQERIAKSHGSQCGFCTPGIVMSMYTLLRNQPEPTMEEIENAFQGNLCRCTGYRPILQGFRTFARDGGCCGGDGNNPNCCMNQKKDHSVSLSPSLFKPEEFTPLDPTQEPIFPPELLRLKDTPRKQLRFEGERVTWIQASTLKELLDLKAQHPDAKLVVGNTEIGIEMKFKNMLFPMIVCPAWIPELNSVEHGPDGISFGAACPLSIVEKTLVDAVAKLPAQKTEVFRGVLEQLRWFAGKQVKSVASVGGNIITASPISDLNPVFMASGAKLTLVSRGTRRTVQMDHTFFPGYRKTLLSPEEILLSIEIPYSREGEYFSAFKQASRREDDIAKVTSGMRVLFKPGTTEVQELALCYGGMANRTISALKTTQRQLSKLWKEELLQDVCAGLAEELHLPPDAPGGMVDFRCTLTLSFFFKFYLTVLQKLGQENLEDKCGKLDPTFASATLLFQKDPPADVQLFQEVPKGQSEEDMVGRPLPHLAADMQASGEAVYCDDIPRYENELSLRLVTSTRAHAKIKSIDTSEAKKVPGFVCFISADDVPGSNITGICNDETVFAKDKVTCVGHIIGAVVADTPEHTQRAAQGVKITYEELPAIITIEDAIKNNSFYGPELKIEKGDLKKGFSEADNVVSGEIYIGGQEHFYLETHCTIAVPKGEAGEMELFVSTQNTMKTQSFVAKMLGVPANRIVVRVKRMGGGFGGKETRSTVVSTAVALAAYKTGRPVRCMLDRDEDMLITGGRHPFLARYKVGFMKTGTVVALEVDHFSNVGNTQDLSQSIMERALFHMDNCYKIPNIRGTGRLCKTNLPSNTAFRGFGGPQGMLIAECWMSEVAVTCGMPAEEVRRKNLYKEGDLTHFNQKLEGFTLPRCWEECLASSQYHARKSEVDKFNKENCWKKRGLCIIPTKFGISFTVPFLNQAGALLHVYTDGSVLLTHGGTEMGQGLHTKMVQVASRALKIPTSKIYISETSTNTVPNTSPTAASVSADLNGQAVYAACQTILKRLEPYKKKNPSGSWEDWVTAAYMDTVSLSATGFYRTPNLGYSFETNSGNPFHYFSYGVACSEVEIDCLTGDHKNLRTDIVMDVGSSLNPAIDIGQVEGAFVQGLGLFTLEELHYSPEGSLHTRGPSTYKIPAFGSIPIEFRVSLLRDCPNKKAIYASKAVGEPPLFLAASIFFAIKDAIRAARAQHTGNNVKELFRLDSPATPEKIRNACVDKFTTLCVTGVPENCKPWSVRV

O=C(C=Cc1ccc(O)c(O)c1)OC1CC(OC(=O)C=Cc2ccc(O)c(O)c2)(C(=O)O)CC(O)C1O (stereo not shown) [1,5-diCQA, 1,5-dicaffeoylquinic acid]
IL-1β in cell supernatant (THP-1 cells): 4176.74 ± 1214.41^b pg/mL
IC50 (XOD (xanthine oxidase)): 122 ± 2.56 µM

O=C(C=Cc1ccc(O)c(O)c1)OC1CC(O)(C(=O)O)CC(O)C1OC(=O)C=Cc1ccc(O)c(O)c1 (stereo not shown) [4,5-diCQA, 4,5-dicaffeoylquinic acid]
IL-1β in cell supernatant (THP-1 cells): 5572.09 ± 632.81^c pg/mL
IC50 (XOD (xanthine oxidase)): 233 ± 10.9 µM

O=C(C=Cc1ccc(O)c(O)c1)OC1CC(O)(C(=O)O)CC(OC(=O)C=Cc2ccc(O)c(O)c2)C1O (stereo not shown) [3,5-diCQA, 3,5-dicaffeoylquinic acid]
IL-1β in cell supernatant (THP-1 cells): 8850.00 ± 190.20^e pg/mL
IC50 (XOD (xanthine oxidase)): 289 ± 21.8 µM

O=C(C=Cc1ccc(O)c(O)c1)OC1CC(O)(C(=O)O)CC(O)C1OC(=O)C=Cc1ccc(O)c(O)c1 (stereo not shown) [3,4-diCQA, 3,4-dicaffeoylquinic acid]
IL-1β in cell supernatant (THP-1 cells): 7088.57 ± 621.91^d pg/mL
IC50 (XOD (xanthine oxidase)): 260 ± 18.4 µM

O=C(C=Cc1ccc(O)c(O)c1)OC1C(O)CC(OC(=O)C=Cc2ccc(O)c(O)c2)(C(=O)O)CC1O (stereo not shown) [1,4-diCQA, 1,4-dicaffeoylquinic acid]
IL-1β in cell supernatant (THP-1 cells): 4647.67 ± 607.03^bc pg/mL
IC50 (XOD (xanthine oxidase)): 7.36 ± 0.63 µM
